Laboratory results reported in patent publication US11959067B2, “Bifidobacterium lactis strain for preventing or treating colitis and method for preventing or alleviating colitis” (HARBIN SUNFLOWER PHARMACEUTICAL CO., LTD., priority 2021, dated 2024).
Where a name gives a salt, the structure may show the parent alone.

Experiments:
[1] = tested on: CTX-induced immunocompromised mouse model; assay: Villus height of small intestinal mucosa in CTX mice; format: in vivo, BALB/c male mice; conditions: LEV 10 mg·kg^−1, vs model group, P<0.05, FIG. 10
Method: (§1) SPF BALB/c male mice that each were 6 to 8 weeks old and weighed 18 g to 22 g were provided by Liaoning Changsheng Biotechnology Co., Ltd., with animal license No.: SCXK (Liao) 2020-0001. The BALB/c mice were randomly divided into 7 groups, with 8 mice in each group. Mice in the blank group and model group were each orally gavaged with 0.4 mL of NS, mice in the positive control group were each orally gavaged with levamisole hydrochloride (LEV) (10 mg·kg^−1), and mice in the B. lactis strain XLTG11 dose groups were orally gavaged with 0.4 mL of B. lactis strain XLTG11 suspensions at doses of 1×10^9 cfu, 1×10^8 cfu, 1×10^7 cfu, and 1×10^6 cfu per mouse, respectively. The mice were orally gavaged continuously for 28 d, during which the mice could eat and drink freely. On day 23 and day 24 after the oral gavage, mice in the model group, positive control group, and B. lactis strain XLTG11 dose groups were intraperitoneally injected with CTX (40 mg·kg^−1), and mice in the blank group were intraperitoneally injected with an equal volume of NS.

[2] = tested on: CTX-induced immunocompromised mouse model; assay: Pathological changes of small intestinal mucosal tissue (HE staining) in CTX mice; format: in vivo, BALB/c male mice; conditions: LEV 10 mg·kg^−1, CTX mice, FIG. 9
Method: as §1

[3] = tested on: CTX-induced immunocompromised mouse model; format: in vivo
Method: as §1

[4] = tested on: CTX-induced immunocompromised mouse model; format: in vivo; conditions: serum, CTX mice, LEV 10 mg·kg^−1
Method: as §1
min after the last oral gavage to mice in each group, eyeballs were removed, the whole blood was collected and centrifuged at 3000 r·min^−1 for 10 min, and the resulting serum was collected, dispensed, and frozen in a −80° C. refrigerator for test. Serum IgA, IgG, IL-2, IL-6, IFN-γ, and TNF-α levels were determined with an ELISA kit, and specific operation steps were conducted according to the instructions.

c1ccc([C@H]2CN3CCSC3=N2)cc1 [Positive control, levamisole hydrochloride]
small intestinal villus height [1]: increased
damage of the small intestinal mucosal tissue [2]: improved
Toe thickness difference ([3]; LEV 10 mg·kg^−1, CTX mice, before vs 24 h after SRBC injection): 0.054 cm
Goblet cell number ([3]; LEV 10 mg·kg^−1, CTX mice, number of goblet cells/epithelial length (mm)): 25.22
Spleen index ([3]; LEV 10 mg·kg^−1 oral gavage 28 d, CTX mice, spleen mass (mg)/body mass (g)): 2.97
Thymus index ([3]; LEV 10 mg·kg^−1 oral gavage 28 d, CTX mice, thymus mass (mg)/body mass (g)): 1.42
IFN-γ [4]: 466.78 ± 62.60 ng/L
IL-2 [4]: 666.32 ± 134.02 ng/L
IL-6 [4]: 77.12 ± 17.49 pg/mL
IgA [4]: 55.95 ± 3.66 ng/mL
IgG [4]: 467.59 ± 54.35 ng/mL
TNF-α [4]: 496.86 ± 49.31 ng/L
